Assay type in all cases: in vivo
Test [1] concerns Echinochloa crus-galli. As to the kind of experiment: Post-emergence herbicidal effect. Particulars: visual assessment after about 3 weeks. The procedure: (§1) Seeds of monocotyledonous and dicotyledonous weed and crop plants are laid out in sandy loam in wood-fibre pots, covered with soil and cultivated in a greenhouse under good growth conditions. 2 to 3 weeks after sowing, the test plants are treated at the one-leaf stage. The compounds according to the invention, formulated in the form of wettable powders (WP) or as emulsion concentrates (EC), are then sprayed as aqueous suspension or emulsion at a water application rate of 600 to 800 l/ha (converted) with the addition of 0.2% of wetting agent onto the green parts of the plants. After the test plants have been left to stand in the greenhouse under optimal growth conditions for about 3 weeks, the action of the preparations is assessed visually in comparison to untreated controls (herbicidal action in percent (%): 100% activity=the plants have died, 0% activity=like control plants).

The test system of test [2] is Lolium multiflorum. As to the kind of experiment: Post-emergence herbicidal effect. The note with it: visual assessment after about 3 weeks. The procedure: as §1
For test [3], the system named is Alopecurus myosuroides. As to the kind of experiment: Post-emergence herbicidal effect. Particulars: visual assessment after about 3 weeks. As for the experimental part:
as §1

The subject of test [4] is Setaria viridis. The experiment in a line: Post-emergence herbicidal effect. The note with it: visual assessment after about 3 weeks. The procedure:
as §1

Test [5] relates to Avena fatua. The experiment in a line: Post-emergence herbicidal effect. The note with it: visual assessment after about 3 weeks. As for the experimental part: as §1
In test [6] the test system is Echinochloa crus-galli. The experiment in a line: Pre-emergence herbicidal effect. Particulars: visual score after 3 weeks. The text has this:
(§2) Seeds of monocotyledonous and dicotyledonous weed plants and crop plants are laid out in wood-fibre pots in sandy loam and covered with soil. The compounds according to the invention formulated in the form of wettable powders (WP) or as emulsion concentrates (EC) are then applied as aqueous suspension or emulsion at a water application rate of 600 to 800 l/ha (converted) with the addition of 0.2% wetting agent to the surface of the covering soil. After the treatment, the pots are placed in a greenhouse and kept under good growth conditions for the trial plants. The damage to the test plants is scored visually after a test period of 3 weeks by comparison with untreated controls (herbicidal activity in percent (%): 100% activity=the plants have died, 0% activity=like control plants).

The test system of test [7] is Lolium multiflorum. As to the kind of experiment: Pre-emergence herbicidal effect. The note with it: visual score after 3 weeks.
Description: as §2

Test [8] concerns Alopecurus myosuroides. The experiment in a line: Pre-emergence herbicidal effect. Particulars: visual score after 3 weeks.
Description: as §2

Test [9] relates to Setaria viridis. As to the kind of experiment: Pre-emergence herbicidal effect. The note with it: visual score after 3 weeks.
Description: as §2

For test [10], the system named is Avena fatua. The experiment in a line: Pre-emergence herbicidal effect. The note with it: visual score after 3 weeks.
Description: as §2

A further test relates to Cyperus esculentus. The experiment in a line: Pre-emergence herbicidal effect. Particulars: 320 g/ha, visual score after 3 weeks.
Description: as §2

On to `CC#Cc1cc(C)c(C2=C(OC(=O)C(C)C)C3(CCC(COC)C3)NC2=O)c(CC)c1` (stereo not drawn) [Example Ia-8], for which the “Post-emergence effectiveness ECHCG” value in the test with Echinochloa crus-galli [1] (20 g/ha) and in the test on Echinochloa crus-galli [1] (80 g/ha) was 100% in each case. Further, the “Post-emergence effectiveness LOLMU” value in the test on Lolium multiflorum [2] (20 g/ha) and with Lolium multiflorum [2] (80 g/ha) was 100% in each case. For the same compound, the “Post-emergence effectiveness ALOMY” value in the test with Alopecurus myosuroides [3] (20 g/ha) and in the test with Alopecurus myosuroides [3] (80 g/ha) was 100% throughout. Moreover, the “Post-emergence effectiveness SETVI” value with Setaria viridis [4] (20 g/ha) and in the test with Setaria viridis [4] (80 g/ha) was 100% in each case. In the test on Avena fatua [5] (80 g/ha), the “Post-emergence effectiveness AVEFA” value is given as 100%. Also, the “Pre-emergence effectiveness ECHCG” value in the test with Echinochloa crus-galli [6] (80 g/ha) and in the test with Echinochloa crus-galli [6] (320 g/ha) was 100% throughout. Besides, the “Pre-emergence effectiveness LOLMU” value with Lolium multiflorum [7] (80 g/ha) and in the test with Lolium multiflorum [7] (320 g/ha) was 100% throughout. Further, the “Pre-emergence effectiveness ALOMY” value in the test with Alopecurus myosuroides [8] (80 g/ha) and in the test with Alopecurus myosuroides [8] (320 g/ha) was 100% throughout. In addition, the “Pre-emergence effectiveness SETVI” value in the test with Setaria viridis [9] (80 g/ha) was 80%; with Setaria viridis [9] (320 g/ha), 100%. Also, the “Pre-emergence effectiveness AVEFA” value in the test on Avena fatua [10] (80 g/ha) and in the test on Avena fatua [10] (320 g/ha) was 90% each time.
In the case of `CC#Cc1cc(CC)c(C2=C(O)C3(CCC(CCOC)CC3)NC2=O)c(CC)c1` (stereo not drawn) [Example I-1], the “Post-emergence effectiveness ECHCG” value in the test on Echinochloa crus-galli [1] (20 g/ha) and with Echinochloa crus-galli [1] (80 g/ha) was 100% in each case. Moreover, the “Post-emergence effectiveness LOLMU” value in the test on Lolium multiflorum [2] (20 g/ha) and in the test on Lolium multiflorum [2] (80 g/ha) was 90% in each case. In addition, the “Post-emergence effectiveness ALOMY” value in the test on Alopecurus myosuroides [3] (80 g/ha) is 90%. Also, the “Post-emergence effectiveness SETVI” value in the test with Setaria viridis [4] (20 g/ha) is 90%; in the test with Setaria viridis [4] (80 g/ha), 100%. For the same compound, in the test with Avena fatua [5] (80 g/ha), the “Post-emergence effectiveness AVEFA” value is 90%. Also, the “Pre-emergence effectiveness ECHCG” value in the test with Echinochloa crus-galli [6] (80 g/ha) and with Echinochloa crus-galli [6] (320 g/ha) was 100% throughout. Further, the “Pre-emergence effectiveness LOLMU” value in the test with Lolium multiflorum [7] (80 g/ha) and in the test on Lolium multiflorum [7] (320 g/ha) was 100% throughout. The “Pre-emergence effectiveness ALOMY” value in the test with Alopecurus myosuroides [8] (80 g/ha) turned out to be 80%; in the test with Alopecurus myosuroides [8] (320 g/ha), 100%. For the same compound, the “Pre-emergence effectiveness SETVI” value in the test on Setaria viridis [9] (80 g/ha) and with Setaria viridis [9] (320 g/ha) was 100% throughout. For the same compound, the “Pre-emergence effectiveness AVEFA” value with Avena fatua [10] (320 g/ha) worked out at 80%.
Consider `CC#Cc1cc(C)c(C2=C(O)C3(CCC(COC)C3)NC2=O)c(CC)c1` (stereo not drawn) [Example I-9], for which the “Post-emergence effectiveness ECHCG” value in the test on Echinochloa crus-galli [1] (20 g/ha) and with Echinochloa crus-galli [1] (80 g/ha) was 100% each time. Moreover, the “Post-emergence effectiveness LOLMU” value with Lolium multiflorum [2] (20 g/ha) and in the test on Lolium multiflorum [2] (80 g/ha) was 100% in each case. Besides, the “Post-emergence effectiveness ALOMY” value in the test on Alopecurus myosuroides [3] (20 g/ha) and with Alopecurus myosuroides [3] (80 g/ha) was 100% throughout. The “Post-emergence effectiveness SETVI” value in the test with Setaria viridis [4] (20 g/ha) and in the test on Setaria viridis [4] (80 g/ha) was 100% throughout. Besides, the “Post-emergence effectiveness AVEFA” value was determined as 90% in the test with Avena fatua [5] (20 g/ha) and 100% in the test on Avena fatua [5] (80 g/ha). For the same compound, the “Pre-emergence effectiveness ECHCG” value with Echinochloa crus-galli [6] (80 g/ha) and with Echinochloa crus-galli [6] (320 g/ha) was 100% in each case. Besides, the “Pre-emergence effectiveness LOLMU” value in the test on Lolium multiflorum [7] (80 g/ha) is listed as 80%; in the test with Lolium multiflorum [7] (320 g/ha), 100%. Moreover, the “Pre-emergence effectiveness ALOMY” value in the test on Alopecurus myosuroides [8] (80 g/ha) and with Alopecurus myosuroides [8] (320 g/ha) was 100% in each case. Besides, the figures for the “Pre-emergence effectiveness SETVI” value with Setaria viridis [9] (80 g/ha) and in the test on Setaria viridis [9] (320 g/ha) were 90% and 100%, respectively. In the test with Avena fatua [10] (320 g/ha), the “Pre-emergence effectiveness AVEFA” value was determined as 90%.
In the case of `CCOC(=O)OC1=C(c2c(C)cc(C#CC3CC3)cc2C)C(=O)NC12CCC(COC)C2` (stereo not drawn) [Example Ia-2], the “Post-emergence effectiveness ECHCG” value in the test on Echinochloa crus-galli [1] (80 g/ha) is reported as 80%. In addition, the “Post-emergence effectiveness SETVI” value in the test on Setaria viridis [4] (80 g/ha) is recorded as 80%. Also, the “Pre-emergence effectiveness ECHCG” value in the test on Echinochloa crus-galli [6] (80 g/ha) and with Echinochloa crus-galli [6] (320 g/ha) was 100% throughout. Moreover, in the test on Lolium multiflorum [7] (320 g/ha), the “Pre-emergence effectiveness LOLMU” value is 80%. The “Pre-emergence effectiveness ALOMY” value in the test with Alopecurus myosuroides [8] (80 g/ha) is reported as 80%; with Alopecurus myosuroides [8] (320 g/ha), 100%. Further, the “Pre-emergence effectiveness CYPES” value in the test with Cyperus esculentus is given as 100%. For the same compound, the “Pre-emergence effectiveness SETVI” value with Setaria viridis [9] (80 g/ha) is listed as 90%; in the test with Setaria viridis [9] (320 g/ha) it was 100%.
For `CCc1cc(C#CC2CC2)cc(C)c1C1=C(OC(=O)C(C)C)C2(CCC(COC)C2)NC1=O` (stereo not drawn) [Example Ia-12], the “Post-emergence effectiveness ECHCG” value in the test on Echinochloa crus-galli [1] (20 g/ha) and in the test with Echinochloa crus-galli [1] (80 g/ha) was 100% throughout. The “Post-emergence effectiveness LOLMU” value with Lolium multiflorum [2] (20 g/ha) worked out at 90%; with Lolium multiflorum [2] (80 g/ha), 100%. Also, the “Post-emergence effectiveness ALOMY” value in the test on Alopecurus myosuroides [3] (20 g/ha) and in the test on Alopecurus myosuroides [3] (80 g/ha) was 90% throughout. Moreover, the “Post-emergence effectiveness SETVI” value in the test on Setaria viridis [4] (20 g/ha) and with Setaria viridis [4] (80 g/ha) was 100% each time. For the same compound, the “Post-emergence effectiveness AVEFA” value in the test with Avena fatua [5] (20 g/ha) and in the test on Avena fatua [5] (80 g/ha) was 100% in each case. In addition, the “Pre-emergence effectiveness ECHCG” value in the test on Echinochloa crus-galli [6] (80 g/ha) and with Echinochloa crus-galli [6] (320 g/ha) was 100% throughout. In addition, the “Pre-emergence effectiveness LOLMU” value in the test with Lolium multiflorum [7] (80 g/ha) and with Lolium multiflorum [7] (320 g/ha) was 100% in each case. Further, the “Pre-emergence effectiveness ALOMY” value in the test with Alopecurus myosuroides [8] (80 g/ha) and in the test on Alopecurus myosuroides [8] (320 g/ha) was 100% in each case. In addition, the results for the “Pre-emergence effectiveness SETVI” value with Setaria viridis [9] (80 g/ha) and with Setaria viridis [9] (320 g/ha) were 90% and 100%, respectively. The “Pre-emergence effectiveness AVEFA” value with Avena fatua [10] (320 g/ha) is recorded as 90%.

(Values after patent US10899709B2, “Novel-alkynyl-substituted 3-phenylpyrrolidine-2,4-diones and use thereof as herbicides” (BAYER CROPSCIENCE AKTIENGESELLSCHAFT, priority 2015, dated 2021).)
